Assay results as given in patent US9987379B2, “Molecular probes for imaging of myelin” (Case Western Reserve University, priority 2008, dated 2018).

Experiments:
[1] = tested on: myelinated corpus callosum and cerebellum; experiment: In vitro staining of myelinated white matter in mouse brain tissue sections (fluorescent microscopy); format: binding; settings: 10 μM, wild-type mouse brain sections
Method: We then evaluated the myelin-binding properties of the newly synthesized compounds 3, 6, and 7 through in vitro staining of mouse brain tissue sections. Both myelinated corpus callosum and cerebellar regions were then examined by fluorescent microscopy.
Normal control mice were deeply anesthetized and perfused transcardially with saline (10 mL) followed by fixation with 4% PFA in PBS (10 mL, 4° C., pH 7.6). Brain tissues were then removed, postfixed by immersion in 4% PFA overnight, dehydrated in 30% sucrose solution, embedded in freezing compound (OCT, Fisher Scientific, Suwanee, Ga.), cryostat sectioned at 10 μm on a microtome and mounted on superfrost slides (Fisher Scientific). The brain sections were incubated with compound 3, 6 and 7 (10 μM, 1% DMSO in PBS (10 mM, pH 7.0)) for 20 minutes at room temperature in dark. Excess compounds were washed by briefly rinsing the slides in PBS (10 mM, pH 7.0) and coversliped with fluoromount-G mounting media (Vector Laboratories, Burlingame, Calif.). Sections were then examined under a Leica DRMB microscope equipped for fluorescence.

[2] = Solubility in organic solvents; format: physicochemical
[3] = target: [3H]BMB binding sites on rat myelin fractions; experiment: Competition binding assay using [3H]BMB as radioligand in isolated myelin fractions; settings: 1.87 nM [3H]BMB, Cheng-Prusoff from IC50
Method: FIG. 4 illustrates plots of competition binding assays of test compounds using [^3H]BMB as the radioligand in isolated myelin fractions. The concentrations that inhibited 50% of specific binding of [^3H]BMB (IC50 values) were converted to inhibition constant (Ki). Ki values were calculated using the Cheng-Prusoff equation: Ki=IC50/(1+[L]/Kd), where [L] is the concentration of [^3H]BMB used in the assay. Data are means of three independent measurements done in duplicate.
In vitro binding assay using radioligand is the most sensitive techniques available to quantitatively determine the binding affinities of compounds to certain proteins. Our previous studies have shown that BMB binds to myelin sheaths with high affinity and specifity (Stankoff, B.; Wang, Y.; Bottlaender, M.; Aigrot, M. S.; Dolle, F. et al. Imaging of CNS myelin by positron-emission tomography. Proc Natl Acad Sci USA 2006, 103, 9304-9309). For this reason, tritiated BMB was custom synthesized by American Radiolabeled Chemicals Inc. (St Louis, Mo.) and was used as the radioligand for binding assays. This allowed us to determine the binding affinities of the newly synthesized compounds using isolated rat myelin fractions. Saturation experiment was first conducted using [^3H]BMB. […] Competitive binding assays were also conducted using [^3H]BMB as radioligand. The stilbene derivatives competed effectively with [^3H]BMB binding sites on rat myelin fractions at affinities of low micromole concentrations.
(§1) Sprague-Dawley (SD) rats were asphyxiated with CO2. When the rat had stopped breathing, the skin/fur over the neck was wetted with a spray of 70% ethanol. […] The concentration of myelin and pellet were determined by Bio-Rad Protein Assay.
The radioligand-based binding assays were carried out in 12×75 mm borosilicate glass tubes. […] Nonspecific binding was defined in the presence of cold BMB (1 μM, diluted in PBS (containing 1% DMSO) in the same assay tubes. For the competition binding, 10^−5 to 10^−10 M compounds and 1.87 nM [^3H]BMB were used for the studies. The mixture was incubated at 37° C. for 2 hrs. The bound and free radioactivity were separated by rapid vacuum filtration through Whatman GF/B filters using a Brandel M-24R cell harvester followed by 3×2 mL washes of PBS at room temperature. Filters containing the bound radioligand were dissolved in 6 mL biodegradable counting cocktail overnight and the radioactivity was assayed next day in the scintillation counter (Beckman) with 42% counting efficiency. The results of saturation and inhibition experiments were subjected to nonlinear regression analysis using Graph Pad Prism 4 by which Kd and Ki values were calculated.

[4] = tested on: isolated myelin fractions; experiment: Spectrophotometry-based binding assay with isolated myelin fractions; design: species or system rat; settings: 10 μM compound per tube, 1 h room temperature
Method: (§2) FIG. 2 illustrates plots of the concentrations of free, unbound 6 and 7 following incubation with isolated myelin fractions and non-myelin pellets based upon a spectroscopic assay. In these assays, 10 μM of 6 and 7 was added to each solution containing myelin fractions or non-myelin pellets at various concentrations ranging from 0-2.5 μg per tube. Each data point was repeated in triplicate and an average was used.
Binding affinities of newly synthesized compounds 6 and 7 were determined based on spectrophotometry. […] The desired proteins were aliquoted and frozen at −80° C. for up to 6 months without noticeable change in its properties determined by electrophoresis (data not shown). […] The free and bound tested compounds were then separated by centrifuging at 6000 rpm for 10 min and quantified.
Sprague-Dawley (SD) rats were asphyxiated with CO2. […] The concentration of myelin and pellet were determined by Bio-Rad Protein Assay.
In the spectrophotometry-based binding assays, a solution of 6 or 7 (800 μL, 12.5 μM) dissolved in 10% DMSO buffer solution containing 10 mM MgCl2 and 10 mM PBS (pH 7.4) was incubated with isolated myelin or pellets at different concentrations ranging from 0.06 to 14 μg/tube. […] In parallel, non-specific binding was determined using pellets under the same condition. […]

non-myelin pellets = experiment: Spectrophotometry-based binding assay with non-myelin pellets; design: species or system rat; settings: 1 h room temperature; for binding to non-myelin fractions: 10 μM compound per tube; for concentration of free, unbound compound (constant and close to the total concentration initially used): incubated with non-myelin pellet at increasing concentration
Method: as §2
Binding affinities of newly synthesized compounds 6 and 7 were determined based on spectrophotometry. Myelin sheaths and non-myelin pellets were extracted from rat's brain homogenates according to subcellular fraction protocol (Martenson, R. E.; Deibler, G. E.; Kies, M. W. Extraction of rat myelin basic protein free of other basic proteins of whole central nervous system tissue. An analysis of its electrophoretic heterogeneity. J Biol Chem 1969, 244, 4268-4272). Briefly, the homogenates were successively mixed with different concentrations of sucrose and spun in a Beckman ultracentrifuge. Myelin sheaths and non-myelin containing pellets were well separated according to their different densities and located in different layers of sucrose. The proteins were then collected and washed thoroughly with Colman buffer (10 mM). The desired proteins were aliquoted and frozen at −80° C. for up to 6 months without noticeable change in its properties determined by electrophoresis (data not shown). Prior to binding assays, the protein fractions (myelin and pellet) were thawed and diluted with PBS (10 mM, pH 7.0). A series of concentrations of the protein fractions were incubated with tested compounds (6 and 7, 12.5 μM) for 1 h at room temperature. The free and bound tested compounds were then separated by centrifuging at 6000 rpm for 10 min and quantified.
as §1
In the spectrophotometry-based binding assays, a solution of 6 or 7 (800 μL, 12.5 μM) dissolved in 10% DMSO buffer solution containing 10 mM MgCl2 and 10 mM PBS (pH 7.4) was incubated with isolated myelin or pellets at different concentrations ranging from 0.06 to 14 μg/tube. […] Following incubation at room temperature for 1 hr, the free and bound 6 or 7 was separated by centrifugation at 6000 rpm for 10 min The supernatant was then collected and the UV absorption of free 6 or 7 determined by UV spectrometer were at 350 nm or 363 nm. […] In parallel, non-specific binding was determined using pellets under the same condition. […]

myelinated cerebellum = experiment: In situ tissue staining of myelinated white matter after tail vein injection; format: in vivo, mouse; settings: 20-80 mg/kg tail vein, three hours post injection, wild-type mice
Method: Following our in vitro tissue staining studies, we then evaluated the brain permeability and subsequent myelin-binding properties of 6 and 7 in the mouse brain. A dose of 6 or 7 (20-80 mg/kg) was administered via tail vein injection into wild-type mice. Three hours post injection, the mouse brains were perfused with saline followed by 4% paraformaldehyde (PFA) and removed. The fresh frozen brains were then sectioned. Fluorescent staining of myelinated regions such as the cerebellum were then directly examined under a microscope.
Under anesthesia, wild-type mice were injected with compounds 6 and 7 (20-80 mg/kg) via the tail vein, and the mice were then perfused transcardially with saline (10 ml) followed by 4% PFA in PBS (10 ml, 4° C., pH 7.6). Brain tissues were then removed, postfixed by immersion in 4% PFA overnight, dehydrated in 30% sucrose solution, cryostat sectioned at 16 μm on a microtome and mounted on superfrost slides (Fisher Scientific), and imaged directly under fluorescent microscopy without any further staining.

Row | SMILES | in vitro fluorescent staining of brain tissue sections [1] | solubility [2] | Ki [3] [nM] | binding to myelin fractions (free concentration decreased proportionally with myelin concentration) [4] | binding to non-myelin fractions (non-myelin pellets) | concentration of free, unbound compound (constant and close to the total concentration initially used) (non-myelin pellets) [µM] | brain entry and in situ labeling of myelin (myelinated cerebellum)
1 | Nc1ccc(/C=C/c2ccc(N)cc2)cc1 [Compound 3, (E)-4,4′-diamino-trans-stilbene] | selectively labeled both corpus callosum and cerebellum | soluble in EtOH, CH2Cl2, DMSO and other organic solvents | 370 | – | – | – | –
2 | CN(C)c1ccc(/C=C/c2ccc(N)cc2)cc1 [Compound 6, (E)-dimethyl-{4-[2-(4-amino-phenyl)-vinyl]-phenyl}-amine] | selectively labeled both corpus callosum and cerebellum | soluble in EtOH, CH2Cl2, DMSO and other organic solvents | 119 | specific binding interactions exist | no binding to the non-myelin fractions | ~10.47 | readily entered the mouse brain and selectively labeled myelinated cerebellum
3 | CNc1ccc(C=Cc2ccc(N)cc2)cc1 [Compound 7, N-methyl-{4-[2-(4-amino-phenyl)-vinyl]-phenyl}-amine] | selectively labeled both corpus callosum and cerebellum | soluble in EtOH, CH2Cl2, DMSO and other organic solvents | 126 | specific binding interactions exist | no binding to the non-myelin fractions | ~10.53 | readily entered the mouse brain and selectively labeled myelinated cerebellum
4 | Nc1ccc(C=Cc2ccc(I)cc2)cc1 [Compound 9, 4-[2-(4-Iodo-phenyl)-vinyl]-phenylamine] | – | – | 494 | – | – | – | –
